Results on six compounds are retold here after PMC11247487, “Discovery of Dual MER/AXL Kinase Inhibitors as Bifunctional Small Molecules for Inhibiting Tumor Growth and Enhancing Tumor Immune Microenvironment” (Journal of Medicinal Chemistry, 2024).

One data set concerns the target T1, AXL (Homo sapiens, UniProt P30530).
T1 construct: A purified kinase (MER or AXL) was incubated with a compound or DMSO
T1 sequence (P30530 26-894): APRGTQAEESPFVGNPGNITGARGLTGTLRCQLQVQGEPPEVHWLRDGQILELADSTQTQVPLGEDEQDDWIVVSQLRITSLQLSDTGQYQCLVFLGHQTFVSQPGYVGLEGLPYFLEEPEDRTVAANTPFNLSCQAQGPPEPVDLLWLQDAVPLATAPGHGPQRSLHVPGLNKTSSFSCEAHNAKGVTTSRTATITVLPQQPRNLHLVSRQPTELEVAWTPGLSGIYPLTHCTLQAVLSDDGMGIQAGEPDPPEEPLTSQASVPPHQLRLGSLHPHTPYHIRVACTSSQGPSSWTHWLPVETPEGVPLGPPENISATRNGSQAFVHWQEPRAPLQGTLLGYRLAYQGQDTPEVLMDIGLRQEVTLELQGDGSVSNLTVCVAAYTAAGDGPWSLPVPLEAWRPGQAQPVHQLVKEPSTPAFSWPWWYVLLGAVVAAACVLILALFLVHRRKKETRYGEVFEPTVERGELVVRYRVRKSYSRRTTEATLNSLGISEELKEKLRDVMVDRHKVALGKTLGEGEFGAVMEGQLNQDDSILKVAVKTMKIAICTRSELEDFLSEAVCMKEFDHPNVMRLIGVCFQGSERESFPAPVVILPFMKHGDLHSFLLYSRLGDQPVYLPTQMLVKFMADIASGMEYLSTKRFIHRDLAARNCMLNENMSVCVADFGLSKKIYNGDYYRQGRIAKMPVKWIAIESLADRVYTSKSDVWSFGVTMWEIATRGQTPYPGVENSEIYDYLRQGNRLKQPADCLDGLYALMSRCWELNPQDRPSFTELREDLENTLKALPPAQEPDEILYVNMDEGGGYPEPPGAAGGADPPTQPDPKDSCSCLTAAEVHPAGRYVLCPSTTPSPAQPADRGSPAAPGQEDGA
Put plainly: AXL enzyme inhibition assay (ADP-Glo). Format: biochemical. On the technique in general: ADP-Glo first removes unused ATP, then detects ADP through luciferase.

The next data set has as its target T2, MER (Homo sapiens, UniProt Q12866).
T2 construct: A purified kinase (MER or AXL) was incubated with a compound or DMSO
T2 sequence (Q12866 21-999): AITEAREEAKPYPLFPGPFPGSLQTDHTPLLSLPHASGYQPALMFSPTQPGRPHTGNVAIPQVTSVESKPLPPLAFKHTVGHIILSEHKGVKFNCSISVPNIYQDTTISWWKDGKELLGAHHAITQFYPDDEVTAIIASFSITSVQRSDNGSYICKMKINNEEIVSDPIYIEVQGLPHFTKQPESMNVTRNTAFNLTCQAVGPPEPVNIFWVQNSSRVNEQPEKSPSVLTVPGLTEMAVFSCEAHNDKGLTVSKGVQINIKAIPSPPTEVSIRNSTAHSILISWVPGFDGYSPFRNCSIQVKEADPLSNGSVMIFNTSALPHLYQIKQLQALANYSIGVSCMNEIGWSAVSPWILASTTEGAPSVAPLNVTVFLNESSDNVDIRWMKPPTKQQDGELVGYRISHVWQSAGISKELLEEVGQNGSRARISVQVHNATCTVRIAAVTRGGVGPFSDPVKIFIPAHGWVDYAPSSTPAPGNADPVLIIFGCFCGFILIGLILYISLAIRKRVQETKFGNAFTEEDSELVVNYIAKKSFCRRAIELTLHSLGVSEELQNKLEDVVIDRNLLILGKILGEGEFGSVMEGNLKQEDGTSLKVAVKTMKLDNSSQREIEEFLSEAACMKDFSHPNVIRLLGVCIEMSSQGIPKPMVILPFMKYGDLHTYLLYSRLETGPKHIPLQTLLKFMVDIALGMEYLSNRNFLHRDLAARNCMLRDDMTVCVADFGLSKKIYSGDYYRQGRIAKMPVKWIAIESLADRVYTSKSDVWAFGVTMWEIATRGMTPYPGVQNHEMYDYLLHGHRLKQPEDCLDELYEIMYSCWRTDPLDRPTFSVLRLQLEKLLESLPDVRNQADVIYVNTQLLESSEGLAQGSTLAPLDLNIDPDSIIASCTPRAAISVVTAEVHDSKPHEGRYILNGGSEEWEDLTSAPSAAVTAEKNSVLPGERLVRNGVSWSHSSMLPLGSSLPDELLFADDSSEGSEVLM
Put plainly: MER enzyme inhibition assay (in-house Kinase-Glo). Format: biochemical.

Data set [1] in a line: In vivo pharmacokinetics study. Particulars: mice; for clearance at 24 h: read-out: iv CL; for Vd at 24 h: read-out: iv Vss; for iv DNAUC(0–inf) / po DNAUC(0–inf) / po DNCmax: dose-normalized. Here is the method: The animal studies were performed according to NHRI institutional animal care and committee-approved procedures. Male ICR mice (25–35 g) were obtained from BioLASCO (Taiwan Co., Ltd., Ilan, Taiwan). […] All samples were analyzed for the parent drug by LC-MS/MS. Plasma concentration data were analyzed with a noncompartmental method.

The next data set concerns Ba/F3-MER cells. Put plainly: Cell viability assay (MTS). The class given is cell-based. Particulars: 72 h.
A short description of data set [2]: In vitro microsomal stability assay. Particulars: 1 μM, mouse liver microsomes, percent remaining at 30 min. Format: in vitro ADME. Here is the method:
All incubations were initiated with the addition of NADPH-generating system at 37 °C for 30 min. At 0 and the end of incubation, 100 μL of aliquots were taken from the incubation mixture and placed into centrifuge tubes containing 100 μL of ice-cold acetonitrile to terminate the metabolic reaction. The samples were vortexed and centrifuged, and then, the supernatant injected onto LC/MS. Percent of remaining of each compound was calculated by comparing peak areas at 30 min to that at the initiation of incubation.

The test system of data set [3] is 4T1 murine triple-negative breast tumors. Put plainly: 4T1 syngeneic tumor model. Particulars: 50 mg/kg QD, FOTO. The class given is in vivo, mice.
Experimental: (§1) All mice were used between 6 and 7 weeks of age. […] Tumor cells were detected as free of Mycoplasma spp prior to injection into animals. […] Tumor growth was measured with an electronic caliper, and volumes were calculated as L × W × W/2. Tumor size and animal body weight were measured once a week after tumor cell inoculation. Tumor growth inhibition (% TGI) = [1 – ΔT/ΔC] × 100, where ΔT is the difference of average tumor volume on the measured day and day 0 of treated groups and ΔC is the difference of average tumor volume on the measured day and day 0 of control groups.
The test system of data set [4] is MDA-MB-231 human triple-negative breast xenograft tumors. Put plainly: MDA-MB-231 xenograft tumor model. Particulars: 50 mg/kg QD, FOTO.
Experimental: as §1
Another data set concerns MC38 murine colon tumor. Put plainly: MC38 syngeneic tumor model. The class given is in vivo, mice.
The subject of data set [5] is Hepa1–6 murine liver tumors. Put plainly: Hepa1–6 tumor model. The class given is in vivo, mice. Particulars: 30 mg/kg orally QD, FOTO.
Experimental: as §1
Where [6] appears, read: male, ICR, mouse, plasma, iv 2 mg/kg, po 10 mg/kg.
Setting [7] is: male, ICR, mouse, plasma, iv 2 mg/kg.
[8] abbreviates: male, ICR, mouse, plasma, iv 2 mg/kg, read-out: iv T1/2 (converted).
Setting [9] is: male, ICR, mouse, plasma, po 10 mg/kg.
The mark [10] stands for this setting: male, ICR, mouse, plasma, po 10 mg/kg, read-out: po T1/2 (converted).
The mark [11] stands for this setting: male, ICR, mouse, plasma, iv 3 mg/kg.

Values joined by “and” are separate entries in the source; they are usually repeats but may differ in a detail not shown here. Equal entries are not always repeated. “Also recorded” adds a separate entry of the source. Where two headings read alike, the source gives them in different places.

Experimental for MC38 murine colon tumor: as §1

Broadly, the IC50 is the concentration that gives 50% inhibition. In general, bioavailability refers to the share of a dose that reaches the circulation, judged against a reference dose that is usually intravenous. A higher bioavailability goes with much systemic uptake. As usually defined, the Tmax is the time from dosing to the highest level. On to `Cn1cc(-c2oc3ncnc(Oc4ccc(NC(=O)c5cccn(-c6ccc(F)cc6)c5=O)cc4)c3c2-c2cccc(N3CCNCC3)c2)cn1` [Compound 34, 1-(4-Fluorophenyl)-N-[4-({6-(1-methyl-1H-pyrazol-4-yl)-5-[3-(piperazin-1-yl)phenyl]furo[2,3-d]pyrimidin-4-yl}oxy)phenyl]-2-oxo-1,2-dihydropyridine-3-carboxamide], for which the figures for the IC50 at AXL, on MER and in the data set on Ba/F3-MER cells were 12.1 nM, 2.1 nM and 8.4 nM, respectively. The compound also displayed a bioavailability at 24 h in [1] (setting [6]) of 0.6%. The clearance at 24 h in data set [1] (setting [7]) was 42.9 mL/min/kg. Moreover, the figures for the half-life at 24 h in [1] (setting [8]) and in [1] (setting [10]) were 6.7 h and 4.7 h, respectively. In addition, in data set [1] (setting [7]), the Vd at 24 h was 14.2 L/kg. In data set [1] (setting [9]), the Tmax came out at 2.2 h. The “iv DNAUC(0–inf)” value in data set [1] (iv 2 mg/kg) came out at 454.5 ng·h/mL. Also, in [1] (po 10 mg/kg), the “po DNAUC(0–inf)” value was determined as 2.6 ng·h/mL. Further, the “po DNCmax” value in data set [1] (po 10 mg/kg) came out at 0.7 ng/mL. The “Microsomal stability @ 30 min” value in data set [2] was 83%.
Turning to `COc1cc2nccc(Oc3ccc(NC(=O)c4cc5c(n(-c6ccccc6)c4=O)CCCC5=O)nc3)c2cc1OC` [Compound 8, tamnorzatinib], the “TGI, % of Vehicle Control” value in data set [3] was 12% and 12.2 ± 3.7%; in [4], 9% and 8.7 ± 4.7%; with MC38 murine colon tumor (50 mg/kg orally QD, FOTO) it was 45% and 44.8 ± 4.6%; in data set [5] it was 17% and 16.7 ± 12.0%. The compound further returned an IC50 against MER of 9.8 nM.
As to `CN1CCN(c2cccc(-c3c(-c4cnn(C)c4)oc4ncnc(Oc5ccc(NC(=O)c6cccn(-c7ccc(F)cc7)c6=O)cc5)c34)c2)CC1` [Compound 35, 1-(4-Fluorophenyl)-N-[4-({5-[3-(4-methylpiperazin-1-yl)phenyl]-6-(1-methyl-1H-pyrazol-4-yl)furo[2,3-d]pyrimidin-4-yl}oxy)phenyl]-2-oxo-1,2-dihydropyridine-3-carboxamide], the IC50 against AXL amounted to 11.1 nM; at MER, 14.2 nM; with Ba/F3-MER cells, 7.5 nM. The bioavailability at 24 h in data set [1] (setting [6]) came out at 14.8%. Further, in [1] (setting [7]), the clearance at 24 h turned out to be 87.1 mL/min/kg. Moreover, the half-life at 24 h in [1] (setting [8]) is 2.4 h; in [1] (setting [10]), 4.3 h. In data set [1] (setting [7]), the Vd at 24 h amounted to 7.4 L/kg. The time to peak (Tmax) at 24 h in data set [1] (setting [9]) came out at 2.7 h. For the same compound, in data set [1] (iv 2 mg/kg), the “iv DNAUC(0–inf)” value was 221.0 ng·h/mL. The “po DNAUC(0–inf)” value in data set [1] (po 10 mg/kg) stood at 32.8 ng·h/mL. Also, in [1] (po 10 mg/kg), the “po DNCmax” value came out at 4.5 ng/mL. Also, the “Microsomal stability @ 30 min” value in data set [2] is listed as 59%.
`CNc1cccc(-c2c(-c3cnn(C)c3)oc3ncnc(Oc4ccc(NC(=O)c5cccn(-c6ccc(F)cc6)c5=O)cc4)c23)c1` [Compound 29, 1-(4-Fluorophenyl)-N-[4-({5-[3-(methylamino)phenyl]-6-(1-methyl-1H-pyrazol-4-yl)furo[2,3-d]pyrimidin-4-yl}oxy)phenyl]-2-oxo-1,2-dihydropyridine-3-carboxamide] registered a bioavailability at 24 h in [1] (setting [6]) of 0.5%. For the same compound, in data set [1] (setting [7]), the clearance at 24 h was found to be 5.3 mL/min/kg and the Vd at 24 h turned out to be 1.3 L/kg. For the same compound, the half-life at 24 h in data set [1] (setting [8]) was 8.5 h. Further, the Tmax at 24 h in data set [1] (setting [9]) came out at 24 h. Besides, in data set [1] (iv 2 mg/kg), the “iv DNAUC(0–inf)” value was 3,330.5 ng × hr/mL. In data set [1] (po 10 mg/kg), the “po DNAUC(0–inf)” value came to 15.3 ng·h/mL and the “po DNCmax” value came to 1.4 ng/mL. Also, the half-inhibitory concentration (IC50) in the data set with Ba/F3-MER cells was found to be 1.2 nM. Moreover, the “Microsomal stability @ 30 min” value in data set [2] is listed as 100%.
Take `Cn1cc(-c2oc3ncnc(Oc4ccc(NC(=O)c5cccn(-c6ccc(F)cc6)c5=O)cc4)c3c2-c2cccc(CN)c2)cn1` [Compound 31, N-[4-({5-[3-(Aminomethyl)phenyl]-6-(1-methyl-1H-pyrazol-4-yl)furo[2,3-d]pyrimidin-4-yl}oxy)phenyl]-1-(4-fluorophenyl)-2-oxo-1,2-dihydropyridine-3-carboxamide]: in data set [1] (setting [7]), the clearance at 24 h turned out to be 35.1 mL/min/kg and the Vd at 24 h came to 9.9 L/kg. Also, the half-life at 24 h in [1] (setting [8]) was 6.3 h. For the same compound, the “iv DNAUC(0–inf)” value in data set [1] (iv 2 mg/kg) turned out to be 483.0 ng·h/mL. This compound also gave an IC50 with Ba/F3-MER cells of 7.6 nM. Also, in [2], the “Microsomal stability @ 30 min” value stood at 77%.
As for `Cn1cc(-c2oc3ncnc(Oc4ccc(NC(=O)c5cccn(-c6ccc(F)cc6)c5=O)cc4)c3c2-c2cccc(N)c2)cn1` [Compound 22, N-(4-{[5-(3-Aminophenyl)-6-(1-methyl-1H-pyrazol-4-yl)furo[2,3-d]pyrimidin-4-yl]oxy}phenyl)-1-(4-fluorophenyl)-2-oxo-1,2-dihydropyridine-3-carboxamide], in [1] (setting [11]), the clearance at 24 h came to 2.9 mL/min/kg and the Vd at 24 h was found to be 1.2 L/kg. The half-life at 24 h in data set [1] (male, ICR, mouse, plasma, iv 3 mg/kg, read-out: iv T1/2 (converted)) is 6 h. Also, the bioavailability at 24 h in data set [1] (male, ICR, mouse, plasma, iv and po 3 mg/kg) came out at 19.2%. For the same compound, in data set [1] (male, ICR, mouse, plasma, po 3 mg/kg), the Tmax at 24 h came to 4 h. Moreover, in data set [1] (male, ICR, mouse, plasma, po 3 mg/kg, read-out: po T1/2 (converted)), the half-life at 24 h is 3.4 h. For the same compound, in [1] (iv 3 mg/kg), the “iv DNAUC(0–inf)” value was 3,985.3 ng × hr/mL. In data set [1] (po 3 mg/kg), the “po DNAUC(0–inf)” value came out at 764.0 ng·h/mL and the “po DNCmax” value is recorded as 38.7 ng/mL. The “body weight during treatment” value with MC38 murine colon tumor (MC38 tumor-bearing mice, 25-50 mg/kg orally, 3 weeks) was “No significant body weight loss; also recorded: well-tolerated without significant body weight loss”.
